# In patent publication US20150191484A1, “NOVEL COMPOUNDS HAVING A TETRACYCLIC IRIDOID SKELTON AND AN ANTI-TRYPANOSOMAL AGENT COMPRISING THE SAME AS AN ACTIVE INGREDIENT” (NATIONAL UNIVERSITY CORPORATION TOKYO MEDICAL AND DENTAL …, priority 2014, published 2015):
# Experiments:
# various human cells = test: MTT cytotoxicity, panel of human cell lines (summary); format: cell-based; conditions: IC50 against human cells / IC50 against Trypanosoma
# Description: ML-2-3 has low cytotoxicity on mammalian cells. The cytotoxicity of ML-2-3 is very low compared to the cytotoxicity of ML-2-2. The cytotoxicity of ML-2-2 and ML-2-3 on mammalian cells can be compared as IC50 value. The usefulness of the compounds for a therapeutic agent for mammals including humans can be compared by a selectivity index (SI). For a compound to be accepted as a useful therapeutic agent for mammals means that the compound should have high anti-trypanosomal activity but low cytotoxicity on mammals. The selectivity index (SI) is represented by an equation: IC50 of cytotoxicity on mammalian cells/IC50 of anti-trypanosomal activity. In particular, it is represented by an equation: IC50 against human cells/IC50 against Trypanosoma such as Trypanosoma brucei. […] IC50 (μM) of ML-2-3 against HF-19 and HCT-15 is more than 50, which means that ML2-3 is non-toxic at the highest assayed dose in HF-19 and HCT-15. […]
# The cytotoxic activity of natural products against mammalian cells is an important point in the search for active compounds with biological activity. […] The viabilities of cells were determined with the MTT (3-(4,5-dimethylthiazol-2-yl)-2-5-diphenyltetrazolium bromide) assay. The selectivity index (SI) was determined using the following equation: IC50 against human cells/IC50 against T. brucei. […]
# Trypanosoma cells [1] = test: Multi-caspase apoptosis assay (FACS); format: cell-based, Trypanosoma brucei brucei; conditions: 5 μM
# Description: (§1) The GUTat 3.1 strain of the bloodstream forms of T. b. brucei parasites was used for this study. Parasites were cultured in vitro according to the conditions established by Yabu et al, 1998.
# (§2) Parasites were used when they reached a confluent concentration of 1×10^6 parasites/ml. Estimation of parasitemia was done with the Neubauer's counting chamber. Parasites were diluted to a concentration of 3×10^5 parasites/ml with HMI-9 medium and used for the various experiments.
# This assay was performed to investigate multi-caspase signals as markers of apoptosis. Seeding and incubation of parasites were as for the other experiments. After 24 hours of incubation, 10% Caspase Reagent Working Solution was added to each well. The plate was incubated for 1 h at 37° C. under 5% CO2 in air. The plate was washed twice with 1× apoptosis wash buffer, centrifuged for 5-7 min and the supernatant aspirated off. Two hundred microlitres (200 μl) working solution of Caspase 7-AAD was added to each well and mixed thoroughly to re-suspend parasites. The plate was incubated for 10 min at room temperature and subjected to FACS analysis using, the Millipore guava easyCyte 5HT FACS machine for the sorting and estimation of apoptotic parasites according to the manufacturer's instructions.
# [2] = MTT cytotoxicity assay, U937; format: cell-based, human; conditions: human, U937 leukemia cells; U937 leukemia, 48 h, MTT
# Description: (§3) The cytotoxic activity of natural products against mammalian cells is an important point in the search for active compounds with biological activity. […] In order to confirm the selective and potent anti-trypanosomal activity of ML-2-2 and ML-2-3, we examined their cytotoxicity in a panel of human cell lines including two human fibroblastic and 8 human cancer-derived cell lines. Cells were seeded in 96-well microplates and incubated with ML-2-2 and ML-2-3 for 48 h at 37° C. in a 5% CO2 humidified incubator. The viabilities of cells were determined with the MTT (3-(4,5-dimethylthiazol-2-yl)-2-5-diphenyltetrazolium bromide) assay. The selectivity index (SI) was determined using the following equation: IC50 against human cells/IC50 against T. brucei. The IC50 values of ML-2-3 were higher than those of ML-2-2 in all the cell lines examined. […] The SI of ML-2-2 indicates values below 1.00 in most cell lines. On the other hand, SI values of ML-2-3 were much higher than those of ML-2-2 in all tested cell lines.
# U937 (leukemia) = test: MTT cytotoxicity assay, U937; format: cell-based, human; conditions: IC50 against U937 / IC50 against T. brucei
# Description: as §3
# [3] = MTT cytotoxicity assay, HL-60; format: cell-based, human; conditions: human, HL-60 leukemia cells; HL-60 leukemia, 48 h, MTT
# Description: as §3
# HL-60 (leukemia) = test: MTT cytotoxicity assay, HL-60; format: cell-based, human; conditions: IC50 against HL-60 / IC50 against T. brucei
# Description: as §3
# [4] = MTT cytotoxicity assay, THP-1; format: cell-based, human; conditions: human, THP-1 leukemia cells; THP-1 leukemia, 48 h, MTT
# Description: as §3
# THP-1 (leukemia) = test: MTT cytotoxicity assay, THP-1; format: cell-based, human; conditions: IC50 against THP-1 / IC50 against T. brucei
# Description: as §3
# Trypanosoma cells [5] = test: Immunohistochemistry / immuno-fluorescence analysis (anti-α tubulin, DAPI); format: cell-based, Trypanosoma brucei brucei; conditions: 15 μM (four times of IC50)
# Description: as §1, §2
# Immunohistochemistry was performed to detect any morphological or phenotypic changes which may be caused by extracts/compounds with trypanocidal effect. The initial steps of immunohistochemistry are the same as that for the Cell Cycle Assay. After fixing the parasites at −20° C. for an hour, 500 μl of the fixed parasites were transferred to an 8-chamber slide. The parasites were incubated at 4° C. overnight to allow the fixed parasites to adhere to the slide surface. The 70% EtOH was then discarded completely. 500 μl of PBS was added to each chamber and incubated for 5 min, after which PBS was discarded. The parasites were further washed with 500 μl of PBST (0.01% Triton X 100 in PBS) for 5 min and the washing solution discarded. 500 μl of blocking reagent (3% BSA in PBST) was added to the chamber and incubated for 30 min at room temperature, after which the blocking reagent was discarded. Each chamber was filled with 500 μl Anti-α tubulin antibody and incubated for 1 hour. The antibody was then discarded and the parasites were incubated with 500 μl of DAPI (5 μg/ml DAPI in PBS) for 10 min in the dark. The wells were washed twice with 500 μl of PBS and once with 500 μl of PBST. The 8-chamber block was detached from the slide and a few drops of parmafluor mounting reagent were put on the slide. The slide was covered carefully with a cover slip. The covered slide was allowed to dry in the dark and the edge of the cover slip sealed with clear nail varnish. The slide was observed under the Olympus fluorescent microscope.
smiles,measurement,setting,value
"COc1cc(/C=C2/C(=O)O[C@]34C=C[C@@H]5C(C(=O)O)=CO[C@H](O[C@@H]23)[C@@H]54)ccc1O [ML-2-3, (3aS,4aR,4a^1S,7aS,9aS,3E)-3-(4-hydroxy-3-methoxybenzylidene)-2-oxo-2,3,3a,4a,4a^1,7a-hexahydro-1,4,5-trioxadicyclopenta[a,hi]indene-7-carboxylic acid]","selectivity index (SI), range over the human cell lines",various human cells,≥ 3.2 to more than 13
same,late-apoptosis cells,Trypanosoma cells [1]; control cells 0.40%,4.2%
same,mid-apoptosis cells,Trypanosoma cells [1]; control cells 1.05%,7%
same,IC50 at 48 h,[2],12 µM
same,SI (selectivity index),U937 (leukemia),3.21
same,IC50 at 48 h,[3],25.5 µM
same,SI (selectivity index),HL-60 (leukemia),6.81
same,IC50 at 48 h,[4],15.4 µM
same,SI (selectivity index),THP-1 (leukemia),4.11
same,expression of α-tubulin,Trypanosoma cells [5],significantly suppressed
same,flagellum phenotype,Trypanosoma cells [5],no flagellum phenotype
same,nuclear fragmentation,Trypanosoma cells [5],clearly induced the fragmented nuclei
